Assay results from patent publication US7884081B2, “Methods of modulating tubulin deacetylast activity” (The J. David Gladstone Institutes, priority 2002, dated 2011).
No end group written: not given here.

Key:
SIRT2 [1] = target: T1, SIRT2 (Homo sapiens, UniProt Q8IXJ6); test: In vitro HDAC activity assay with recombinant protein (ribavirin); assay type: biochemical; parameters: 6xHis; factor Xa protease cleavage site; made in house; host or cells: E. coli DH5αFIQ
T1 sequence (Q8IXJ6 1-389): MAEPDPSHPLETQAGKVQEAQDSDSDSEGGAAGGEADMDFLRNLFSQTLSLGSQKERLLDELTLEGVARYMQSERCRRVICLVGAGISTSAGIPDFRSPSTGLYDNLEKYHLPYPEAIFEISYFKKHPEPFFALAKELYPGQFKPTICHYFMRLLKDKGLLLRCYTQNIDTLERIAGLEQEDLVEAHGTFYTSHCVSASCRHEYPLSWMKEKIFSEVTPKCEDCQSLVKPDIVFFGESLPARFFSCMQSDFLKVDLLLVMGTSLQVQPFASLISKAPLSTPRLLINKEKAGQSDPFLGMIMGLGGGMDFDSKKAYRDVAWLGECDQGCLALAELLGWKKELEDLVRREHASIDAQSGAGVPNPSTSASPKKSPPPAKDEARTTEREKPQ
Protocol: (§1) Inhibitory activity of ribavirin against SIRT2 and SIRT3 proteins was tested using recombinant SIRT2 proteins and an in vitro assay. Ribavirin was incubated with recombinant protein only in buffer for 10 minutes; then NAD and substrate were added to start the reaction. Reactions were incubated for 2 hours at room temperature. Reactions were stopped by adding 25 μL stop buffer (0.1M HC1, 0.16M acetic acid) and vortexing briefly. Ethyl acetate extraction isolated any liberated acetyl groups. Ethyl acetate (0.5 ml) was added, mixture was vortexed for 15 seconds and spun at 14,000 rpm for 5 minutes. The upper phase (0.4 ml) was added to 5 mL scintillation fluid (Econofluor-2; Packard) and counted.

SIRT3 = SIRT3 (Homo sapiens, UniProt Q9NTG7); test: as above; assay type: biochemical
Protocol: as §1

[2] = test system: GFP-MIZ-1 sub-cellular distribution in HeLa cells; test: GFP-MIZ-1 sub-cellular localization by immunofluorescence in transfected HeLa cells; assay type: cell-based; conditions: for percentage of cells with GFP-MIZ-1 localized in the cytoplasm: TSA treatment
Protocol: HeLa cells grown on coverslips were transfected with LipofectAMINE reagent (Gibco Invitrogen Corp., Carlsbad, Calif.) for 8 hours according to manufacturer's protocol or by calcium phosphate DNA precipitation method. Transfected cells were incubated for 12 hours with 400 nM TSA (WACO BioProducts, Richmond, Va.) 24 hours after transfection. Cells were washed twice for 10 minutes in PBS and fixed for 10 minutes in 4% formaldehyde (EMS, Ft. Washington, Pa.) followed by permeabilization for 10 minutes in 0.5% Triton-X-100 in PBS. Following three washes for 10 minutes in PBS, cells were incubated for 10 minutes in 10% BSA, and incubated for 1 hour with anti-acetylated tubulin 6-11B-1, anti-tubulin B-5-1-2 diluted 1:1000, or anti-FLAG M2 diluted 1:500 in 0.1% TWEEN-20™ non-ionic detergent. Cells were washed three times in 0.1% TWEEN-20™ non-ionic detergent, followed by incubation with goat anti-mouse IgG (Fc specific) TRITC-conjugated antibody (Sigma, St. Louis) diluted 1:100 in 0.1% TWEEN-20™ non-ionic detergent. Following incubation cells were incubated for 5 minutes in 20 mg/ml 4′,6′-diamidino-2-phenylindole hydrochloride (DAPI) washed three times in phosphate-buffered saline (PBS), once in ddH2O, and mounted with Gel Mount (Biomeda Corp., Foster City, Calif.). Slides were visualized on a Nikon E600 microscope system equipped with a SPOT 2 Digital Camera. Confocal images were acquired by laser-scanning confocal microscopy with an Olympus BX60 microscope equipped with a Radiance 2000 confocal setup (BioRad, Hercules, Calif.).
Transfected cells were counted as either GFP-MIZ-1 localized completely nuclear or with partial cytoplasmic retention. Cell counts were derived from inspection of at least 150 transfected cells from six microscopic fields. […] Data set is representative of three independent experiments.

α-tubulin = conditions: treatment of cells with TSA; cited from earlier work
SIRT2 [3] = target: T1, SIRT2; test: Ex vivo tubulin deacetylation assay, SIRT2-FLAG with cellular lysate, western blot for acetylated tubulin; assay type: biochemical; conditions: 1 mM NAD
Protocol: Immunoprecipitations were resuspended in 100 μl SIRT deacetylase buffer containing 50 μg total cellular lysate from untransfected HEK 293T cells and 1 mM NAD. Reactions containing 400 nM TSA or 5 mM nicotinamide (Sigma, St. Louis, Mo.) were pre-incubated at room temperature with all components of the reaction in the absence of NAD for 10 minutes, Following the pre-incubation, the enzymatic reactions were started with the addition of NAD followed by incubation for 2 hours at room temperature with constant agitation. Reactions were stopped by the addition of 50 μl 6× SDS-polyacrylamide gel electrophoresis (PAGE) buffer. Beads were pelleted by centrifugation at 14,000 rpm for 10 minutes and 10 μl of each supernatant was separated on 10% SDS-PAGE gels and western blotted as described above.
In this assay, HEK 293T cells were transfected with SIRT2-FLAG followed by immunoprecipitation of the FLAG-tagged protein (FIG. 3A). The immunoprecipitated material was separated into two fractions. The first fraction was used to measure HDAC activity using the acetylated histone H4 peptide. […] The extent of acetylation/deacetylation of α-tubulin was determined by western blotting analysis using a specific antisera for acetylated α-tubulin. […]

SIRT2 [4] = target: T1, SIRT2; test: Histone deacetylase assay, immunoprecipitated SIRT2-FLAG on [3H]acetylated histone H4 peptide; assay type: biochemical
Protocol: HEK 293T cells were transfected by calcium phosphate DNA precipitation method and lysed 48 hours post-transfection in low stringency lysis buffer (50 mM Tris-HCl, pH 7.5, 0.5 mM EDTA, 0.5% NP-40, 150 mM NaCl) in the presence of protease inhibitor cocktail (Complete, Roche Molecular Biochemicals, Indianapolis, Ind.). FLAG tagged proteins were immunoprecipitated with anti-FLAG M2 agarose affinity gel (Sigma, St. Louis, Mo.) and GFP-tagged proteins were immunoprecipitated with anti-GFP monoclonal antibody (Sigma, St. Louis, Mo.) in the presence of Protein G Sepharose (Amersham Pharmacia Biotech, Inc., Piscataway, N.J.) for 2 hours at 4° C. Immunoprecipitated material was washed 3 times in low stringency lysis buffer and one time in SIRT2 deacetylase buffer (50 mM Tris-HCl, pH 9.0, 4 mM MgCl2, and 0.2 mM dithiothreitol (DTT)).
Immunoprecipitated material and recombinant SIRT2 were resuspended in 100 μL of SIRT2 deacetylase buffer containing NAD (Sigma, St. Louis, Mo.) and [^3H] acetylated histone H4 peptide (a.a. 1-23) (Emiliani et al., 1998). TSA (WACO BioProducts, Richmond, Va.) was resuspended in dimethyl sulfoxide (DMSO) was further diluted in DMSO and added to reactions to desired concentration. […] After centrifugation for 5 minutes, 400 μL of the ethyl acetate fraction was mixed with 5 ml scintillation fluid and counted.

SIRT1 protein = conditions: cited from earlier work
[5] = test system: acetylated tubulin in HeLa, 293T and HepG2 cells; test: Microtubule destabilizing drug treatment, western blot for acetylated tubulin; assay type: cell-based; conditions: 10 μg/mL colchicine or 1 μg/mL nocodazole for 6 hours
From the text: Lysates were equilibrated by total protein concentration and were separated on 10% SDS-PAGE gels and western blotted as described above.
Cells were harvested and lysates separated by SDS-PAGE and western blotting using specific antisera for acetylated tubulin and tubulin.

SIRT2 [6] = target: T1, SIRT2; test: Tubulin peptide deacetylation kinetics (HPLC); assay type: biochemical; parameters: 6xHis; factor Xa protease cleavage site; made in house; host or cells: E. coli DH5αFIQ; conditions: SIRT2, 800 μM NAD, 37° C.
recombinant Hst2p = recombinant Hst2p (Saccharomyces cerevisiae, UniProt P53686); test: Tubulin peptide deacetylation kinetics (HPLC); assay type: biochemical, yeast; conditions: 500 μM NAD, 37° C.
Protocol: Increasing concentrations of tubulin peptide (20-900 μM), and 800 μM NAD were reacted in the presence of 0.8 to 1 μM recombinant SIRT2 in 50 mM Tris, pH 7.5, 1 mM DTT, and 10% methanol at 37° C. For Hst2p reactions, tubulin peptides and 500 μM NAD were reacted in the presence of 9 to 19 μM recombinant Hst2p under the same conditions. Reactions were quenched with trifluoroacetic acid (TFA) to a final concentration of 1%. Time points were chosen such that initial velocity conditions were observed. Samples were injected into the high performance liquid chromatography (HPLC) with a Beckman C18 analytical column. Upon injection, the system was run isocratically with solvent A (0.05% TFA in H2O), followed by a gradient of 0-10% solvent B (0.02% TFA in CH3CN) for 4 minutes, and followed by a gradient of 10-23% solvent B for 23 minutes. Deacetylated and acetylated peptides eluted at 16% and 18% CH3CN, respectively. Elution of substrates and products were monitored by measuring the absorbance at 214 nm, and corresponding peaks were integrated using the Beckman System Gold Nouveau software. The amount of product was quantified by calculating the percentage of the deacetylated tubulin peptide from the total tubulin peptide based upon their integration values. […]

recombinant Hst2p, sequence (P53686 whole entry): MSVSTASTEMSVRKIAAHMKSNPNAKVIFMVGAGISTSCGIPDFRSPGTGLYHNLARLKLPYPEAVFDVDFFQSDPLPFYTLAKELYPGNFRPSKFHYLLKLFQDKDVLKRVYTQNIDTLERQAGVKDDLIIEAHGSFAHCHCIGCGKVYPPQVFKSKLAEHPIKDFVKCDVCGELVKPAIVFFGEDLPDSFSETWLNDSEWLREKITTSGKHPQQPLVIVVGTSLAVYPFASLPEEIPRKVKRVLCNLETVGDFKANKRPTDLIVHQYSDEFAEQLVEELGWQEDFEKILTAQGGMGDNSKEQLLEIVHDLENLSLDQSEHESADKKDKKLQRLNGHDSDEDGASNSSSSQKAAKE
SIRT3, sequence (Q9NTG7 whole entry): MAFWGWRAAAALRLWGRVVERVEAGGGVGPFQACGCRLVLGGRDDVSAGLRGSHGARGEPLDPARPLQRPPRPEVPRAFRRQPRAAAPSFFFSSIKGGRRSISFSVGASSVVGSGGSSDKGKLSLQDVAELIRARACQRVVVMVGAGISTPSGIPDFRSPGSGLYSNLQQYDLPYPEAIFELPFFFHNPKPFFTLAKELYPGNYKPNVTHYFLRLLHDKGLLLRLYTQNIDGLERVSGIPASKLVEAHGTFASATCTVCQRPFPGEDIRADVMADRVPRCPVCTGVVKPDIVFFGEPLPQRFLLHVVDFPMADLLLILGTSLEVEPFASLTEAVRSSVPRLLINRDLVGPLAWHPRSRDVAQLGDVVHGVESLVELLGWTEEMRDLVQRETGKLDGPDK

## NC(=O)c1ncn([C@@H]2O[C@H](CO)[C@@H](O)[C@H]2O)n1 [Ribavirin, 1-β-D-ribofuranosyl-1H-1,2,4-triazole-3-carboxamide]
SIRT2 [1]
  inhibition at 25 µM: ~50%
SIRT3
  effect on SIRT3 in vitro HDAC activity: no effect

## CC(/C=C/C(=O)NO)=C\[C@@H](C)C(=O)c1ccc(N(C)C)cc1 [TSA, Trichostatin A]
[2]; HeLa cells treated with TSA (400 nM, 12 hours)
  localization of GFP-MIZ-1: distinct shift in localization of GFP-MIZ-1 from the nucleus to the cytoplasm
[2]; co-transfected with FLAG empty vector
  percentage of cells with GFP-MIZ-1 localized in the cytoplasm: 36.9%
[2]; co-transfected with SIRT2-FLAG wild-type
  percentage of cells with GFP-MIZ-1 localized in the cytoplasm: 11.2%
[2]; co-transfected with catalytically inactive SIRT2-FLAG N168A
  percentage of cells with GFP-MIZ-1 localized in the cytoplasm: 35.3%
α-tubulin
  acetylation of α-tubulin in cells: induces hyperacetylation
SIRT2 [3]; 400 nM TSA
  tubulin deacetylation by SIRT2: had no effect
SIRT2 [4]; immunoprecipitated SIRT2-FLAG, 1 mM NAD, increasing concentrations of TSA (100-1600 nM)
  HDAC activity of SIRT2: No change

## NC(=O)c1cccnc1 [nicotinamide]
SIRT2 [3]; 5 mM nicotinamide
  tubulin deacetylation by SIRT2: completely inhibited
SIRT1 protein
  inhibition of SIRT1: effective inhibitor
SIRT2 [4]; increasing concentrations of nicotinamide, 156 μM to 20 mM
  HDAC activity of SIRT2: dose dependent decrease

## COC(=O)Nc1nc2ccc(C(=O)c3cccs3)cc2[nH]1 [nocodazole]
[5]
  acetylation state of tubulin: tubulin deacetylation

## acetylated tubulin peptide: 9-amino acid synthetic α-tubulin peptide (MPSD(AcK)TIGG), acetylated on lysine-40 (MPSDK(Ac)TIGG)
SIRT2 [6]
  V/K: 894 ± 100 M⁻¹ s⁻¹
  kcat: 0.144 ± 0.005 s⁻¹
Recombinant Hst2p
  V/K: 14.9 M⁻¹ s⁻¹
  kcat: 0.00254 ± 0.0003 s⁻¹
